Among the targets are Carbonic anhydrase 2 (Homo sapiens, UniProt P00918); Carbonic anhydrase 9 (Homo sapiens, UniProt Q16790); Carbonic anhydrase 1 (Homo sapiens, UniProt P00915).
A further test addresses T1, Carbonic anhydrase 4 (Bos taurus, UniProt Q95323).
T1 sequence (Q95323 whole entry): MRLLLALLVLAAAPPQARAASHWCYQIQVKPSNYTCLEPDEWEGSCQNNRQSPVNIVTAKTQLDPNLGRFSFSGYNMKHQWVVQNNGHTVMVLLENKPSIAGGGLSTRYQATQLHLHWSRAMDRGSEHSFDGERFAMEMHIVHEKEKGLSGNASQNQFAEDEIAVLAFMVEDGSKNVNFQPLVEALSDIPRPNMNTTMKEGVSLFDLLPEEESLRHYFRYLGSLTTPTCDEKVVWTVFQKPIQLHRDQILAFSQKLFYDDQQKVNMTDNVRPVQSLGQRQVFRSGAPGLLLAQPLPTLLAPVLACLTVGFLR

Chain of Carbonic anhydrase 1 (P00915 whole entry): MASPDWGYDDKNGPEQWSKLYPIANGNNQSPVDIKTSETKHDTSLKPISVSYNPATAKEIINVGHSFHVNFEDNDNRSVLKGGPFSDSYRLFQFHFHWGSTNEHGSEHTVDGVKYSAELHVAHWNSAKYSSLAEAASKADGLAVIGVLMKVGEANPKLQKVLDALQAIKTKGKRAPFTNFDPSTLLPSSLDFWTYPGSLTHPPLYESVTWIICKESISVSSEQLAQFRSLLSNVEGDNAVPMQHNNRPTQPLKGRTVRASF
Description for Carbonic anhydrase 1: Inhibition constant determined against human cloned carbonic anhydrase I
Description for Carbonic anhydrase 2: Inhibition constant (Ki) against human cloned carbonic anhydrase II (CAH)
Description for Carbonic anhydrase 4: Inhibition constant against bovine Carbonic anhydrase IV, isolated from lung microsomes
Description for Carbonic anhydrase 9: Inhibition constant determined against catalytic domain of human cloned carbonic anhydrase IX

Broadly, the Ki is a measure of affinity in units of concentration, obtained from inhibition or displacement. Low readings indicate higher affinity, high ones lower affinity. As to `CC(=O)Nc1ccc(S(=O)(=O)Nc2nnc(S(N)(=O)=O)s2)cc1Br`, the Ki was determined as 0.0015 µM on Carbonic anhydrase 2, 0.078 µM on Carbonic anhydrase 9, 0.005 µM at Carbonic anhydrase 1 and 0.0046 µM at Carbonic anhydrase 4.

Regarding `CC(=O)Nc1ccc(S(=O)(=O)Nc2nnc(S(N)(=O)=O)s2)cc1Cl`, the Ki on Carbonic anhydrase 2 worked out at 0.0013 µM; on Carbonic anhydrase 9, 0.071 µM; on Carbonic anhydrase 1, 0.0054 µM; at Carbonic anhydrase 4 it was 0.0042 µM.

As to `CC(=O)Nc1ccc(S(=O)(=O)Nc2nnc(S(N)(=O)=O)s2)cc1F`, the Ki at Carbonic anhydrase 2 worked out at 0.0012 µM; on Carbonic anhydrase 9, 0.079 µM; on Carbonic anhydrase 1, 0.0057 µM; at Carbonic anhydrase 4 it was 0.004 µM.

Turning to `CC(=O)Nc1ccc(S(=O)(=O)Nc2nnc(S(N)(=O)=O)s2)cc1`, the inhibition constant Ki at Carbonic anhydrase 2 was determined as 0.0031 µM; at Carbonic anhydrase 9, 0.075 µM; at Carbonic anhydrase 1 it was 0.0102 µM; at Carbonic anhydrase 4, 0.0082 µM.

For `Nc1c(Cl)cc(S(=O)(=O)Nc2nnc(S(N)(=O)=O)s2)cc1Cl`, the Ki at Carbonic anhydrase 2 was found to be 0.0005 µM; on Carbonic anhydrase 9, 0.024 µM; on Carbonic anhydrase 1, 0.0011 µM; at Carbonic anhydrase 4, 0.0019 µM.

As to `Nc1c(F)cc(S(N)(=O)=O)cc1Br`, the Ki on Carbonic anhydrase 2 turned out to be 0.033 µM; on Carbonic anhydrase 9, 0.069 µM; at Carbonic anhydrase 1, 3.9 µM; at Carbonic anhydrase 4, 0.113 µM.

For the molecule `CC(=O)Nc1ccc(S(=O)(=O)Nc2nnc(S(N)(=O)=O)s2)cc1I`, the values for the Ki at Carbonic anhydrase 2, on Carbonic anhydrase 1 and on Carbonic anhydrase 4 were 0.0017 µM, 0.0052 µM and 0.0045 µM, respectively.

On to `CC(=O)Nc1ccc(S(N)(=O)=O)cc1F`, for which the inhibitory constant (Ki) on Carbonic anhydrase 2 is 0.029 µM; on Carbonic anhydrase 9, 0.213 µM; on Carbonic anhydrase 1 it was 4.2 µM; on Carbonic anhydrase 4 it was 0.105 µM.

As to `Nc1c(F)cc(S(=O)(=O)Nc2nnc(S(N)(=O)=O)s2)cc1Br`, the Ki at Carbonic anhydrase 2 was found to be 0.0002 µM; on Carbonic anhydrase 9, 0.027 µM; at Carbonic anhydrase 1, 0.001 µM; at Carbonic anhydrase 4 it was 0.0019 µM.

Regarding `Nc1ccc(S(=O)(=O)Nc2nnc(S(N)(=O)=O)s2)cc1I`, the figures for the Ki at Carbonic anhydrase 2, at Carbonic anhydrase 1 and at Carbonic anhydrase 4 were 0.0006 µM, 0.0021 µM and 0.0025 µM, respectively.

On to `Nc1c(Cl)cc(S(=O)(=O)Nc2nnc(S(N)(=O)=O)s2)cc1Br`, for which the results for the inhibition constant (Ki) at Carbonic anhydrase 2, at Carbonic anhydrase 1 and at Carbonic anhydrase 4 were 0.0006 µM, 0.0013 µM and 0.002 µM, respectively.

For the molecule `Nc1c(Br)cc(S(N)(=O)=O)cc1Br`, the Ki on Carbonic anhydrase 9 is 0.068 µM; at Carbonic anhydrase 4, 0.175 µM.

`Nc1c(Cl)cc(S(=O)(=O)Nc2nnc(S(N)(=O)=O)s2)cc1I`: the Ki stood at 0.0008 µM on Carbonic anhydrase 2, 0.0016 µM on Carbonic anhydrase 1 and 0.0027 µM at Carbonic anhydrase 4.

As to `Nc1ccc(S(=O)(=O)Nc2nnc(S(N)(=O)=O)s2)cc1Cl`, the Ki came out at 0.0006 µM on Carbonic anhydrase 2, 0.046 µM on Carbonic anhydrase 9, 0.0025 µM at Carbonic anhydrase 1 and 0.0024 µM on Carbonic anhydrase 4.

Regarding `CC(=O)Nc1ccc(S(N)(=O)=O)cc1Cl`, the Ki at Carbonic anhydrase 2 amounted to 0.074 µM; on Carbonic anhydrase 9, 0.196 µM; on Carbonic anhydrase 1 it was 6.25 µM; at Carbonic anhydrase 4, 0.245 µM.

For the molecule `Nc1c(F)cc(S(=O)(=O)Nc2nnc(S(N)(=O)=O)s2)cc1I`, the Ki at Carbonic anhydrase 2 was 0.0003 µM; at Carbonic anhydrase 9, 0.021 µM; at Carbonic anhydrase 1 it was 0.0017 µM; on Carbonic anhydrase 4, 0.0021 µM.

`Nc1c(Br)cc(S(N)(=O)=O)cc1I`: the Ki was determined as 0.107 µM at Carbonic anhydrase 2, 12.5 µM at Carbonic anhydrase 1 and 0.25 µM on Carbonic anhydrase 4.

For `Nc1c(Cl)cc(S(N)(=O)=O)cc1Br`, the Ki is 0.054 µM on Carbonic anhydrase 2, 0.033 µM at Carbonic anhydrase 9, 7.6 µM on Carbonic anhydrase 1 and 0.21 µM at Carbonic anhydrase 4.

Consider `CC(=O)Nc1ccc(S(N)(=O)=O)cc1I`, for which the Ki turned out to be 0.047 µM on Carbonic anhydrase 2, 0.209 µM on Carbonic anhydrase 9, 3.3 µM at Carbonic anhydrase 1 and 0.115 µM on Carbonic anhydrase 4.

Take `Nc1c(I)cc(S(N)(=O)=O)cc1I`: the Ki was found to be 14 µM at Carbonic anhydrase 1 and 0.28 µM at Carbonic anhydrase 4.

For `Nc1c(I)cc(S(=O)(=O)Nc2nnc(S(N)(=O)=O)s2)cc1I`, the Ki stood at 0.0009 µM on Carbonic anhydrase 2, 0.041 µM at Carbonic anhydrase 9 and 0.0023 µM at Carbonic anhydrase 4.

In the case of `Nc1c(Cl)cc(S(N)(=O)=O)cc1I`, the Ki on Carbonic anhydrase 2 was found to be 0.061 µM; at Carbonic anhydrase 9, 0.063 µM; on Carbonic anhydrase 1, 7.8 µM; on Carbonic anhydrase 4 it was 0.2 µM.

Consider `Nc1ccc(S(=O)(=O)Nc2nnc(S(N)(=O)=O)s2)cc1F`, for which the Ki worked out at 0.0008 µM at Carbonic anhydrase 2, 0.046 µM at Carbonic anhydrase 9, 0.0031 µM on Carbonic anhydrase 1 and 0.0025 µM on Carbonic anhydrase 4.

As for `Nc1c(Br)cc(S(=O)(=O)Nc2nnc(S(N)(=O)=O)s2)cc1Br`, the Ki at Carbonic anhydrase 2 was determined as 0.0005 µM; at Carbonic anhydrase 9, 0.039 µM; at Carbonic anhydrase 1, 0.001 µM; on Carbonic anhydrase 4, 0.0017 µM.

On to `CC(=O)Nc1ccc(S(N)(=O)=O)cc1Br`, for which the Ki came to 0.025 µM at Carbonic anhydrase 2, 0.203 µM at Carbonic anhydrase 9, 3.4 µM at Carbonic anhydrase 1 and 0.058 µM on Carbonic anhydrase 4.

In the case of `Nc1c(F)cc(S(N)(=O)=O)cc1I`, the Ki at Carbonic anhydrase 2 stood at 0.029 µM; on Carbonic anhydrase 9, 0.034 µM; on Carbonic anhydrase 1, 3.7 µM; on Carbonic anhydrase 4 it was 0.125 µM.

For `Nc1c(Cl)cc(S(N)(=O)=O)cc1Cl`, the inhibitory constant (Ki) was determined as 0.05 µM on Carbonic anhydrase 2, 0.027 µM on Carbonic anhydrase 9, 7 µM at Carbonic anhydrase 1 and 0.165 µM at Carbonic anhydrase 4.

Regarding `Nc1ccc(S(=O)(=O)Nc2nnc(S(N)(=O)=O)s2)cc1Br`, the Ki on Carbonic anhydrase 2 was found to be 0.0007 µM; on Carbonic anhydrase 9, 0.047 µM; on Carbonic anhydrase 1 it was 0.0019 µM; on Carbonic anhydrase 4 it was 0.0024 µM.

Take `Nc1c(F)cc(S(N)(=O)=O)cc1Cl`: the inhibition constant (Ki) on Carbonic anhydrase 2 stood at 0.032 µM; at Carbonic anhydrase 9, 0.012 µM; on Carbonic anhydrase 1 it was 3.8 µM; at Carbonic anhydrase 4, 0.095 µM.

For `Nc1c(F)cc(S(=O)(=O)Nc2nnc(S(N)(=O)=O)s2)cc1Cl`, the inhibition constant Ki at Carbonic anhydrase 9 is 0.04 µM; at Carbonic anhydrase 1, 0.0014 µM; at Carbonic anhydrase 4 it was 0.002 µM.

For `Nc1c(Br)cc(S(=O)(=O)Nc2nnc(S(N)(=O)=O)s2)cc1I`, the Ki on Carbonic anhydrase 2 worked out at 0.0006 µM; on Carbonic anhydrase 1, 0.0019 µM; at Carbonic anhydrase 4, 0.0023 µM.

The record behind these values is ChEMBL document CHEMBL1144995, “Carbonic anhydrase inhibitors. Inhibition of tumor-associated isozyme IX by halogenosulfanilamide and halogenophenylaminobenzolamide derivatives” (J Med Chem, 2003).
